Tests used:
[1] = tested on: ovarian cancer cell line xenograft (ES2); assay: Ovarian cancer cell line xenograft ES2; format: in vivo, mice; conditions: 10 mg/kg/day i.p.
Procedure: (§1) Animal Studies: All animal experiments were performed using UTHSA and UTSW IACUC approved protocols. For cell based xenograft tumor assays, TNBC cells (2×10^5-2×10^6) were mixed with an equal volume of matrigel and implanted in the mammary fat pads of 6-week-old female athymic nude mice as described^33. BALB/c mice were used for D2A1 syngeneic model. Once tumors reached measurable size, mice were divided into control (vehicle) and ERX-41 (10 mg/kg/oral) treatment groups. Mice bearing TNBC PDX tumors were purchased from Jackson laboratory (TM00089; TM00096; TM00098). TNBC PDX line UTPDX0001 establishment was earlier described^38. WHIM-20 ER+PDX model was purchased from Horizon Labs. OCa-PDX-38 was received from UTHSA ObGyn tissue procurement core. When tumors reached ˜750 mm^3 they were dissected into 2 mm^3 pieces and implanted into the mammary fat pads of 6 weeks old female SCID or NSG mice. When the tumor volume reached ˜200 mm^3, mice were randomized for treatment. The mice were monitored daily for adverse toxic effects and tumor volume was measured every 3-4 days using calipers. For establishing ES2 tumors, ES2/GFP/LUC cells were injected i.p. and tumors were measured twice a week using Xenogen in vivo imaging system. […] The mice were monitored daily for adverse toxic effects. […] The sections were scored by two independent evaluators blinded to the patient's clinical status.

[2] = tested on: SUM-159 clones with LIPA KO; assay: Live cell imaging with SYTOX Green, SUM-159 LIPA KO; format: cell-based, Human; conditions: 1 μM
Procedure: (§2) Live cell imaging: Live cell images were acquired by Lionheart FX automated microscope (BioTek). Cells were plated one day before the experiment. For cell death assay, 0.2 μM SYTOX Green was added into the plate 15 min before the experiment.

[3] = tested on: four distinct TNBC PDXs; assay: TNBC PDXs in mammary fat pad; format: in vivo, mice; conditions: daily oral, 10 mg/kg/day
Procedure: as §1

[4] = tested on: ERα+ breast PDX (WHIM-20); assay: ERα+ breast PDX WHIM-20; format: in vivo, NSG mice; conditions: 10 mg/kg daily
Procedure: as §1

[5] = tested on: ERα+ breast, glioblastoma, pancreatic and ovarian cancer cell lines; assay: CTG dose response in other cancer cell lines; format: cell-based
Procedure: (§3) Cell viability assays: Cells were seeded in 96-well plates (2×10^3 cells/well) one day before the treatment. Cells were treated with varying concentrations of ERX-41 or ERX-11 analogs for 3-6 days. Then effects of ERX-41 or ERX-11 analogs on cell viability were measured in triplicate or sextuplicate with multiple biological replicates using the WST-1 (Promega), MTT as previously described^33 or CellTiter-Glo 2.0 (Promega) assays.

[6] = tested on: parental SUM-159 xenografts; assay: Parental SUM-159 xenografts; format: in vivo, SCID mice
Procedure: Knockout studies: For xenograft knockout tumor models, 1.8×10^6SUM159 parental, or 1.8×10^6SUM159-LIPA KO cells were harvested with 1% trypsin-EDTA, washed and resuspended in sterile PBS. Cells were initially implanted into the mammary fat pads of six-week-old female C.B-17 (SCID) mice purchased from Envigo (Indianapolis, IN, USA). Mice were monitored twice weekly for tumor growth measured by Vernier calipers where tumor volume was calculated by the formula (length×width^2)/2. Tumors were dissected into 2 mm cubes when they reached 800 mm^3 in size and subsequently implanted into the mammary fat pad of twelve SCID female mice. Once tumor fragments reached 150 mm^3 in size, mice were randomly divided into vehicle group (n=6, control, 0.3% Hydroxy cellulose, i.p.) and treatment group (n=6, ERX-41, 10 mg/kg/day/i.p.). Institutional guidelines were followed to determine experimental end points.

[7] = tested on: MDA-MB-231 TNBC xenografts; assay: MDA-MB-231 TNBC xenografts, ERX-41; format: in vivo; conditions: oral, 10 mg/kg/day
Procedure: Animal Studies: All animal experiments were performed using UTHSA and UTSW IACUC approved protocols. For cell based xenograft tumor assays, TNBC cells (2×10^5-2×10^6) were mixed with an equal volume of matrigel and implanted in the mammary fat pads of 6-week-old female athymic nude mice as described^33. BALB/c mice were used for D2A1 syngeneic model. Once tumors reached measurable size, mice were divided into control (vehicle) and ERX-41 (10 mg/kg/oral) treatment groups. Mice bearing TNBC PDX tumors were purchased from Jackson laboratory (TM00089; TM00096; TM00098). TNBC PDX line UTPDX0001 establishment was earlier described^38. WHIM-20 ER+PDX model was purchased from Horizon Labs. OCa-PDX-38 was received from UTHSA ObGyn tissue procurement core. When tumors reached ˜750 mm^3 they were dissected into 2 mm^3 pieces and implanted into the mammary fat pads of 6 weeks old female SCID or NSG mice. When the tumor volume reached ˜200 mm^3, mice were randomized for treatment. The mice were monitored daily for adverse toxic effects and tumor volume was measured every 3-4 days using calipers. For establishing ES2 tumors, ES2/GFP/LUC cells were injected i.p. and tumors were measured twice a week using Xenogen in vivo imaging system. At the end of each experiment, the mice were euthanized, and the tumors were removed, weighed and processed for histological studies and protein analysis. Dose were selected based on pilot MTD study of 10, 50 100 mg/kg of ERX-41 for 14 days using C57BL6 mice. The mice were monitored daily for adverse toxic effects. IHC analysis was conducted as described previously^39 and immunoreactivity was visualized using DAB substrate and counterstained with hematoxylin (Vector Laboratories Inc. Burlingame, CA). Control rabbit IgG staining was used as a negative control. The sections were scored by two independent evaluators blinded to the patient's clinical status.

[8] = tested on: SUM-159 cells with LIPA KO; assay: UPR induction and protein synthesis in SUM-159 cells with LIPA KO (RNA-seq, RT-qPCR, western); format: cell-based, Human; conditions: 1 μM, 4 h
Procedure: Western blotting: Whole cell lysates from breast cancer cells were prepared with 2× sample buffer (60 mM Tris-HCl, pH 6.8, 2% sodium dodecyl sulfate, 10% glycerol), and before loading mixed with loading buffer (5% 2-mercaptoethanol, 0.1% bromophenol blue) and boiled for denaturation, as previously described.^33 Proteins were separated by SDS-PAGE and subjected to Western analysis using antibodies. To detect nascent translated proteins, puromycin (final concentration 10 μg/mL) was added into cell plates 30 minutes before harvesting cells. Then samples were subjected to the Western blotting. Nascent proteins were detected by anti-puromycin antibody.
Real-time quantitative PCR (RT-qPCR): Total RNA was prepared from breast cancer cells using the RNeasy Mini Kit (Qiagen) according to the manufacturer protocols. Subsequently, total RNAs were reverse transcribed into cDNA using iScript Reverse Transcription Supermix (Bio-rad) and by using SYBR Green on an Illumina Real-Time PCR system.
RNA-sequencing: mRNA-seq sequencing library construction was performed using TruSeq RNA Library Preparation Kit (Illumina) according to the manufacturer's instructions. FASTQ reads from Genomics Core at UTSW were mapped to Human GRCh38 genome using HiSAT2 (RRID:SCR_015530). Differential expression analysis is performed using DEseq2 (RRID:SCR_015687). Abundances of transcripts are calculated using ballgown (Frazee et al. 2014). The values of Fragments Per Kilobase of transcript per Million mapped reads (FPKM) were used for Gene Set Enrichment Analysis (GSEA). GSEA was performed by using the GSEA software (RRID:SCR_005724) and C5 ontology gene sets (14765 gene sets in total). mRNA-seq data from this study are available from NCBI GEO under accession #GSE168800.

[9] = tested on: TNBC cells (MDA-MB-231); assay: Live cell imaging with SYTOX Green, cell death in TNBC cells; format: cell-based, Human; conditions: within 30 hours of treatment; control <1%
Procedure: as §2

[10] = tested on: HMEC cells; assay: Western blotting (UPR proteins, puromycin labeled nascent proteins), HMEC; format: cell-based, human; conditions: 1 μM
[11] = tested on: ERα-positive breast cancer cells (MCF-7, ZR-75); assay: MTT cell viability, ERα-positive breast cancer cells; format: cell-based, Human; conditions: Homo sapiens, MCF-7 and ZR-75, read-out: anti-proliferative IC50
Procedure: as §3

[12] = Tolerability of daily dosing in mice (pilot MTD); format: in vivo; conditions: daily oral or intraperitoneal, up to 100 mg/kg
Procedure: as §1

Compound: CC(C)COc1cc(C(=O)Nc2ccc(C(=O)N[C@H]3CC[C@H](C)CC3)cc2OCC(C)C)ccc1NC(=O)c1ccc([N+](=O)[O-])c(OCCO)c1 [ERX-41]
- activity against ES2 xenograft [1]: has activity against
- cell death in SUM-159 with LIPA KO [2]: dramatic decrease in cell death
- rates of growth of PDX tumors [3]: significantly decreased the rates of growth of the tumors
- activity against WHIM-20 PDX [4]: has activity against
- responsiveness of other cancer cell lines in vitro [5]: responsiveness to ERX-41 in vitro
- Ki67 staining, parental xenografts ([6]; at sacrifice): decrease in Ki67 staining
- response of parental xenografts ([6]; i.p., 10 mg/kg/day): responded significantly
- extirpated tumor weights and sizes at end of study [7]: decreased tumor growth
- growth of established xenografts [7]: significantly decreased the growth
- overt toxicity, body weights of treated mice [7]: no alterations in body weights
- genes altered by RNA sequencing in LIPA KO cells [8]: no genes significantly altered
- cells dead [9]: > 90%
- global de novo protein synthesis in HMEC [10]: not HMEC cells
- induction of ER stress / UPR proteins in HMEC [10]: not in HMEC cells
- IC50 [11]: 100 to 125 nM
- tolerability [12]: well tolerated by mice, with no clear evidence of toxicity

— patent US20250114313A1, “OLIGO-BENZAMIDE ANALOGS AND THEIR USE IN CANCER TREATMENT” (BOARD OF REGENTS, THE UNIVERSITY OF TEXAS SYSTEM, priority 2022, published 2025)
